Assay results from patent US20240124556A1, “KERATIN BD-3, PREPARATION METHOD THEREFOR AND PHARMACEUTICAL COMPOSITION AND USE THEREOF” (INSTITUTE OF MATERIA MEDICA, CHINESE ACADEMY OF MEDICAL …, priority 2019, published 2024).
Structures can show the parent of a compound that is named as a salt. Marks after values point to notes of the source that are not given here.

Columns and labels:
[1] = test system: PLO-induced epilepsy in mice; experiment: Pilocarpine (PLO) induced convulsive epilepsy in mice; format: in vivo, ICR mice; conditions: Diazepam 2 mg/kg
Protocol: • Animals: male ICR mice; • Drugs: Pilocarpine HCl (PLO, pilocarpine, pilocarpine hydrochloride), Diazepam (diazepam tablets), protein BD-3. • Experiment grouping: • Model group: • Diazepam 2 mg/kg group; • Protein BD-3, 50 mg/kg group, 200 mg/kg group.
The drug was administered once in the afternoon the day before modeling, PLO-225 mg/kg (modeling agent) was injected intraperitoneally 1 hour after the test drug was administered intragastrically on the day of modeling. And positive drug can be administered once 20 minutes before modeling. Observe for 30 minutes after PLO injection.
Observation indicators: (1)Seizure situation: the time of seizures from Grade II to Grade IV; (2)the time to death.
(§1) Seizure grade: Refer to Racine grading standard: Grade 0: No response; Grade I: manifested as twitching of facial muscles or the corners of the mouth; Grade II: can nod; Grade III: twitching of one limb; Grade IV: rigidity or body twitching; Grade V: generalized epilepsy (generalized tonic seizures).
Count the number of Grade IV seizures and deaths in each group of mice in the experiment; Grade II, III and IV incubation period. […] Chi-square test was used for statistics of the number of cases. The mean value and standard error of the incubation period were calculated, and TTEST was used to compare the model group with other groups. P<0.05 was considered as a significant difference.

[2] = test system: PTZ-induced epilepsy in mice; experiment: Pentylenetetrazole (PTZ)-induced epilepsy in mice; format: in vivo, ICR mice; conditions: Retigabine 60 mg/kg
Protocol: • Animals: male ICR mice; • Medicines: Pentylenetetrazol (PTZ), Retigabine, Protein BD-3. • Experiment grouping: • Model group; • Retigabine 60 mg/kg group; • Protein BD-3, 50 mg/kg group, 200 mg/kg group;
The drug was administered once in the afternoon the day before modeling, On the day of modeling, PTZ-65 mg/kg (modeling agent) was injected intraperitoneal 1 hour after the test drug was administered intragastrically, and the positive drug can be administered once half an hour before modeling. Continue to observe for 15 minutes after injection of PTZ.
Observation index: (1)Seizure situation: the time of seizures from Grade III to Grade VI; (2)Death situation
as §1
Count the cases of seizures and deaths in each group of mice in the experiment; Grade III and IV incubation period. The incubation period of mice that have not attacked to Grade IV is recorded as the maximum of 900 seconds. Chi-square test was used for statistics of the number of cases. Calculate the mean and standard error of the incubation period. Use TTEST to compare the model group with other groups, and P<0.05 is considered as a significant difference.

[3] = test system: acetic acid writhing in ICR mice; experiment: Acetic acid writhing in ICR mice; format: in vivo
Protocol: • Animals: male ICR mice; • Drugs and reagents: aspirin, physiological saline, glacial acetic acid, protein BD-3. • Experiment grouping: • Model group; • Aspirin 300 mg/kg group; • Protein BD-3, 50 mg/kg group, 200 mg/kg group.
One day after the experimental animals adapt to the environment, Aspirin 300 mg/kg, protein BD-3 50 mg/kg, 200 mg/kg were given orally one hour in advance, and the administration volume was 10 ml/kg; Then, 0.6% acetic acid solution was injected intraperitoneally, and the incubation period (seconds) and frequency of writhing in the animal was observed within 15 minutes.
Calculate the mean and standard error of the data in each group. Compared with the model group by TTEST, P<0.05 was considered as statistically different.

[4] = test system: yeast-induced fever model in SD rats; experiment: Yeast-induced fever model of SD rats; format: in vivo
Protocol: (§2) • Animals: 230-260 grams of male SD rats; • Medicines: yeast (OXOID LP0021), aspirin (SIGMA A2093), protein BD-3; • Instruments: electronic balance (SARTORIUS BP121S type), electronic clinical thermometer (CITIZEN CT-513W type). • Experiment grouping: • Normal control group; • Model group: yeast fever model; • Positive control group: Aspirin 300 mg/kg group; • Protein BD-3, 10 mg/kg group, 50 mg/kg group. • Method:
(§3) Preparation of experimental animals: After the experimental animals adapt to the experimental environment (temperature 22° C.±2° C., relative humidity 50%±2%) for 1 day. Pre-adaptation to measure rectal temperature at 8:00 and 15:00, rats were fasted and water was taken freely 12 h before experiment, and let the animal to empty its feces before measuring the rectal temperature. Apply petroleum jelly to the electronic thermometer probe before each temperature measurement. Insert the rat rectum 2 cm (can be marked at 2 cm to ensure that the depth of each insertion is consistent), and record the body temperature after the reading is stable.
(§4) Subcutaneous injection of dry yeast to replicate rat fever model: The body temperature of the rats was measured before modeling. Qualified rats with a body temperature of 36.2-37.3° C. were selected and randomly divided into groups with 8 rats in each group. After oral administration of aspirin and different doses of protein BD-3, 20% yeast suspension (10 ml/kg) was injected subcutaneously immediately, and the normal control group was injected intraperitoneally with an equal volume of normal saline. The body temperatures of the rats were monitored after 2 hours for a total of 8 hours.
(§5) According to the body temperature measured at each time point on the day of the experiment, calculate the mean, standard deviation and standard error of the body temperature of each group of rats. The data of each group was compared with TTEST, and P<0.05 was considered as a significant difference.

[5] = test system: lipopolysaccharide (LPS) induced fever model in SD rats; experiment: Lipopolysaccharide (LPS) induced fever in SD rats; format: in vivo
Protocol: as §2, with “Drugs: lipopolysaccharide (LPS, SIGMA L-2880),” for “Medicines: yeast (OXOID LP0021),”, “BD-3;” for “BD-3; •”, “lipopolysaccharide” for “yeast”, “Method: the method of intraperitoneal injection of Lipopolysaccharide to replicate rat fever model.” for “Method:”
as §3
as §4, with “Intraperitoneal” for “Subcutaneous”, “lipopolysaccharide” for “dry yeast”, “lipopolysaccharide (20 μg/kg, 2” for “20% yeast suspension (10”, “intraperitoneally” for “subcutaneously”
as §5

[6] = test system: cough induced by ammonia water in mice; experiment: Antitussive test, cough induced by ammonia water in mice; format: in vivo, ICR mice
Protocol: • Animals: male ICR mice; • Drugs and reagents: dextromethorphan hydrobromide, ammonia water, 0.2% CMC-Na, protein BD-3; • Apparatus: Compressed nebulizer (403T type), balance (XS105DU type). • Experiment grouping: • Solvent control group; • Dextromethorphan 15 mg/kg group; • Protein BD-3, 20 mg/kg group, 50 mg/kg group.
Dextromethorphan and different doses of protein BD-3 (administration volume 10 ml/kg) were given orally in groups, and the solvent control group was given the same volume of distilled water. One hour later, mice were put into a sealed box and atomized 10% ammonia water for 10 seconds, and then observed and recorded the incubation period of cough in mice and the number of coughs in 2 minutes.
Record the time point of oral administration, the time point of atomization experiment, the incubation period of mice cough and the number of coughs within 2 minutes, respectively. The incubation period of cough refers to the number of seconds from the start of the atomization of ammonia to the occurrence of cough. The performance of coughing in mice is based on contraction of their abdominal muscles (breast contraction) and opening their mouths at the same time. Calculate the mean and standard error of each group of data, and use TTEST to compare the model group with other groups, and P<0.05 is considered as a significant difference.

[7] = aspirin 300 mg/kg oral, 20% yeast s.c., model group 37.7 ± 0.1
[8] = aspirin 300 mg/kg oral, LPS 20 μg/kg i.p., model group 37.8 ± 0.2

Q: Which results are given for `CN1C(=O)CN=C(c2ccccc2)c2cc(Cl)ccc21` [Diazepam, reference compound]?
A: mortality rate ([1]; PLO 225 mg/kg i.p., model group 0): 0; Grade IV seizure rate ([1]; PLO 225 mg/kg i.p., model group 80%): 0** %; Grade IV seizure incubation period ([1]; mean ± SEM, maximum recorded 1800 seconds, model group 894 ± 164): 1800 ± 0 s; Grade II seizure incubation period ([1]; mean ± SEM, model group 86 ± 5): 109 ± 8 s; Grade III seizure incubation period ([1]; mean ± SEM, model group 142 ± 6): 182 ± 14 s; Cases of Grade IV ([1]; of 10 mice, PLO 225 mg/kg i.p., 30 min observation, model group 8): 0**; Cases of deaths ([1]; of 10 mice, PLO 225 mg/kg i.p., model group 0): 0

Q: With `CCOC(=O)Nc1ccc(NCc2ccc(F)cc2)cc1N` [Retigabine, reference compound] as the compound, how does the mortality rate ([2]; PTZ 65 mg/kg i.p., model group 10%) read?
A: 0%

Q: And the “Grade IV seizure rate” value ([2]; PTZ 65 mg/kg i.p., model group 90%)?
A: 20%**

Q: What about the “Grade IV seizure incubation period” value ([2]; mean ± SEM, maximum recorded 900 seconds, model group 185 ± 84) of the same compound?
A: 745 ± 103 s

Q: What about the “Grade III seizure incubation period” value ([2]; mean ± SEM, model group 63 ± 6) of the same compound?
A: 83 ± 7 s

Q: What about the “Cases of Grade IV” value ([2]; of 10 mice, PTZ 65 mg/kg i.p., 15 min observation, model group 9) of the same compound?
A: 2**

Q: What about the Cases of deaths ([2]; of 10 mice, PTZ 65 mg/kg i.p., model group 1) of the same compound?
A: 0

Q: Which results are given for `CC(=O)Oc1ccccc1C(=O)O` [aspirin, reference compound]?
A: Writhing incubation period and times of writhing vs model group (in words) ([3]; Aspirin 300 mg/kg, P<0.05): can significantly delay the incubation period of writhing and reduce the times of writhing; Writhing incubation period ([3]; aspirin 300 mg/kg oral, 0.6% acetic acid i.p., model group 204.2 ± 19.6): 290.3 ± 37.0 s; Frequency of writhing ([3]; aspirin 300 mg/kg oral, within 15 minutes, model group 33.3 ± 2.5): 15.2 ± 2.9 times; Body temperature 2 hours after modeling ([4]; aspirin 300 mg/kg oral, 20% yeast s.c., model group 37.5 ± 0.1): 37.0 ± 0.1 °C; Body temperature 8 hours after modeling ([4]; aspirin 300 mg/kg oral, 20% yeast s.c., model group 37.6 ± 0.1): 37.0 ± 0.1 °C; Body temperature 4 hours after modeling [4, 7]: 37.0 ± 0.1 °C; Body temperature 6 hours after modeling [4, 7]: 37.0 ± 0.1 °C; Effect on body temperature of model rats (in words) ([4]; aspirin 300 mg/kg, at 4 hours, 6 hours, and 8 hours after modeling, P<0.05 vs model group): can effectively inhibit the increase in body temperature of model rats; Body temperature 2 hours after modeling ([5]; aspirin 300 mg/kg oral, LPS 20 μg/kg i.p., model group 37.6 ± 0.1): 36.8 ± 0.1 °C; Body temperature 4 hours after modeling ([5]; aspirin 300 mg/kg oral, LPS 20 μg/kg i.p., model group 37.8 ± 0.1): 36.9 ± 0.2 °C; Body temperature 6 hours after modeling [5, 8]: 36.8 ± 0.2 °C; Body temperature 8 hours after modeling [5, 8]: 36.9 ± 0.1 °C; Effect on body temperature of model rats (in words) ([5]; aspirin 300 mg/kg, at 2, 4, 6 and 8 hours after modeling, P<0.05 vs model group): can effectively inhibit the increase in body temperature of model rats

Q: What does the source list for `COc1ccc2c(c1)[C@]13CCCC[C@@H]1[C@H](C2)N(C)CC3` [Dextromethorphan, dextromethorphan hydrobromide, reference compound]?
A: Incubation period (cough) ([6]; Dextromethorphan 15 mg/kg oral, X ± SEM, solvent control 26.9 ± 2.3): 38.4 ± 4.5 s; Number of coughs ([6]; Dextromethorphan 15 mg/kg oral, within 2 minutes, X ± SEM, solvent control 67.1 ± 5.7): 34.0 ± 2.9; Cough incubation period and number of coughs vs solvent control (in words) ([6]; dextromethorphan 15 mg/kg, P<0.05): significant improvement in the incubation period and the number of coughs
